In patent US8163929B2, “Dihydropyridone amides as P2X7 modulators” (Roche Palo Alto LLC, priority 2008, dated 2012) one finds pIC50 data, which are given here for 20 compounds.

The assay has as its target T1, P2X7 (UniProt Q99572).
T1 sequence (Q99572 1-595): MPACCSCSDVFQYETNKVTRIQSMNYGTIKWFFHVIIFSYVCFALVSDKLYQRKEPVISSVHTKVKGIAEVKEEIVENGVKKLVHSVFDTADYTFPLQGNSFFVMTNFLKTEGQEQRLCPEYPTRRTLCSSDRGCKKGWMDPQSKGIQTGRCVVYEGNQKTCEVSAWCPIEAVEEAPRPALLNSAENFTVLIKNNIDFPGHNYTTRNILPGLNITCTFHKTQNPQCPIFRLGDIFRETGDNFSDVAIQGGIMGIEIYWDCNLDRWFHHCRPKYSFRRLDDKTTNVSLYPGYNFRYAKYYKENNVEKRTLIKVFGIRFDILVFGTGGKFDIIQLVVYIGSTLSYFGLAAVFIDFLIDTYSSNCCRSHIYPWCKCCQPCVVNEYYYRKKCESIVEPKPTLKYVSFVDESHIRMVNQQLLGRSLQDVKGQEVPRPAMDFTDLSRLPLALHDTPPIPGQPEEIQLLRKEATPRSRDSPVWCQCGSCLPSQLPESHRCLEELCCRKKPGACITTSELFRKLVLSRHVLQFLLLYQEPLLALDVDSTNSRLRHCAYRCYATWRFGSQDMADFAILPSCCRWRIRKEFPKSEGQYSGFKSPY
Put plainly: P2X7 activity of Table 1. Format: cell-based. Conditions: pIC50 values for P2X7. As for the experimental part:
Stock solutions of compounds were prepared from powders as a 10 mM DMSO stock solution. These solutions were stored at RT during the two week period of these experiments to prevent freeze-thaw of the DMSO stocks. The DMSO stocks were added to the appropriate assay buffer at a concentration of 10 μM, and then diluted serially to the final concentrations that were tested. […] The aqueous solutions of compounds as well as ATP (Sigma A7699) and BzATP (Sigma B6396) were prepared fresh for each day of experiment.
1321N1 cells stably expressing the full length human P2X7 gene (1321N1-hP2X7) and HEK293 cells stably expressing the full length rat P2X7 gene (HEK293-rP2X7) were obtained from the Roche Cell Culture Facility. 1321N1-hP2X7 cells were grown in Dulbecco's Modified Eagle's Medium (DMEM) high glucose supplemented with 10% FBS and 250 μg/mL G418. HEK293-rP2X7 cells were grown in DMEM/F-12 supplemented with 10% FBS, 1 mM CaCl2, 2 mM MgCl2, 2 mM L-Glutamine and 500 μg/ml G418. Cells were split such that they never became >70% confluent.
On the day prior to the experiment, 1321N1-hP2X7 or HEK293-rP2X7 cells were released into suspension with calcium-free PBS+Versene and washed by centrifugation with calcium-free PBS to remove the Versene. Cells were resuspended in growth medium at a density of 2.5×10^5 cells/mL and seeded into black walled, clear bottom 96 well plates (50,000 cells/well) approximately 18 hr prior to intracellular calcium flux experiments.
On the day of the experiment, plates were washed with FLIPR buffer (calcium- and magnesium-free Hank's Balanced Salt Solution (HBSS) supplemented with 10 mM Hepes, 2.5 mM probenecid and 2 mM calcium chloride) using a BIO-TEK 96 channel plate washer and incubated with […] fluo-3 dye at 37° C. for one hr. The dye was then removed by plate washing and the cells were allowed to equilibrate for 20 min at room temperature with antagonist or vehicle (FLIPR buffer). Agonist (100 μM BzATP final concentration for hP2X7; 5 μM BzATP final concentration or rP2X7) was added online with the FLIPR and fluorescence measurements made at 1 sec intervals for 60 sec followed by 3 sec intervals for a further 4 min (5 min total). A final addition of 5 μM ionomycin was made and the maximal BzATP-evoked fluorescence normalized to the maximal ionomycin-evoked fluorescence.

`Cc1ccc(-c2ccn[nH]c2=O)cc1NC(=O)C1=CN(C)C(=O)C[C@H]1c1ccc(F)cc1` [Compound 72, (S)-4-(4-Fluoro-phenyl)-1-methyl-6-oxo-1,4,5,6-tetrahydro-pyridine-3-carboxylic acid [2-methyl-5-(3-oxo-2,3-dihydro-pyridazin-4-yl)-phenyl]-amide] had a negative-log IC50 (pIC50) of 7.8367.

`CCc1cc(-c2cccc(NC(=O)C3=CNC(=O)C[C@H]3c3ccc(F)cc3)c2)n[nH]1` [Compound 17, (S)-4-(4-Fluoro-phenyl)-6-oxo-1,4,5,6-tetrahydro-pyridine-3-carboxylic acid [3-(5-ethyl-1H-pyrazol-3-yl)-phenyl]-amide] gave a pIC50 of 6.073.

The compound `Cc1ccc(-c2cncnc2)cc1NC(=O)C1=CNC(=O)C[C@H]1c1ccc(F)cc1` [Compound 52, (S)-4-(4-Fluoro-phenyl)-6-oxo-1,4,5,6-tetrahydro-pyridine-3-carboxylic acid (2-methyl-5-pyrimidin-5-yl-phenyl)-amide] displayed a pIC50 of 6.425.

`Cc1ccnc(-c2ccc(C)c(NC(=O)C3=CNC(=O)C[C@H]3c3ccc(F)cc3)c2)n1` [Compound 80, (S)-4-(4-Fluoro-phenyl)-6-oxo-1,4,5,6-tetrahydro-pyridine-3-carboxylic acid [2-methyl-5-(4-methyl-pyrimidin-2-yl)-phenyl]-amide] gave a negative logarithm of the IC50 (pIC50) of 7.315.

The compound `COC[C@H](O)Cn1nccc(-c2ccc(C)c(NC(=O)C3=CNC(=O)C[C@H]3c3ccc(F)cc3)c2)c1=O` [Compound 106, (S)-4-(4-Fluoro-phenyl)-6-oxo-1,4,5,6-tetrahydro-pyridine-3-carboxylic acid {5-[2-((R)-2-hydroxy-3-methoxy-propyl)-3-oxo-2,3-dihydro-pyridazin-4-yl]-2-methyl-phenyl}-amide] gave a pIC50 of 7.885.

`Cc1ccc(-c2ccnn(CCO)c2=O)cc1NC(=O)C1=CN(C)C(=O)C[C@H]1c1ccc(F)cc1` [Compound 94, (S)-4-(4-Fluoro-phenyl)-1-methyl-6-oxo-1,4,5,6-tetrahydro-pyridine-3-carboxylic acid {5-[2-(2-hydroxy-ethyl)-3-oxo-2,3-dihydro-pyridazin-4-yl]-2-methyl-phenyl}-amide]: the negative-log IC50 (pIC50) turned out to be 7.8.

As for `Cc1ccc(-c2cc(C)n(CC(=O)O)n2)cc1NC(=O)C1=CNC(=O)C[C@H]1c1ccc(F)cc1` [Compound 83, [3-(3-{[(S)-4-(4-Fluoro-phenyl)-6-oxo-1,4,5,6-tetrahydro-pyridine-3-carbonyl]-amino}-4-methyl-phenyl)-5-methyl-pyrazol-1-yl]-acetic acid], the pIC50 came out at 6.335.

Take `Cc1ccc(-c2nnc(C)n2C)cc1NC(=O)C1=CNC(=O)C[C@H]1c1ccc(F)cc1` [Compound 34, (S)-4-(4-Fluoro-phenyl)-6-oxo-1,4,5,6-tetrahydro-pyridine-3-carboxylic acid [5-(4,5-dimethyl-4H-[1,2,4]triazol-3-yl)-2-methyl-phenyl]-amide]: the negative-log IC50 (pIC50) was 7.78.

Turning to `Cc1ccc(-c2cc(C)n(CCO)n2)cc1NC(=O)C1=CNC(=O)C[C@H]1c1ccc(F)cc1` [Compound 2, (S)-4-(4-Fluoro-phenyl)-6-oxo-1,4,5,6-tetrahydro-pyridine-3-carboxylic acid {5-[1-(2-hydroxy-ethyl)-5-methyl-1H-pyrazol-3-yl]-2-methyl-phenyl}-amide], the pIC50 worked out at 7.735.

`Cc1cc(-c2cc(NC(=O)C3=CNC(=O)C[C@H]3c3ccc(F)cc3)c(C)cc2F)n[nH]1` [Compound 41, (S)-4-(4-Fluoro-phenyl)-6-oxo-1,4,5,6-tetrahydro-pyridine-3-carboxylic acid [4-fluoro-2-methyl-5-(5-methyl-1H-pyrazol-3-yl)-phenyl]-amide] had a negative-log IC50 (pIC50) of 8.048.

Take `Cc1ccc(-n2ccc(=O)n(C)c2=O)cc1NC(=O)C1=CN(C)C(=O)C[C@H]1c1ccc(F)cc1` [Compound 132, (S)-4-(4-Fluoro-phenyl)-1-methyl-6-oxo-1,4,5,6-tetrahydro-pyridine-3-carboxylic acid [2-methyl-5-(3-methyl-2,4-dioxo-3,4-dihydro-2H-pyrimidin-1-yl)-phenyl]-amide]: the negative logarithm of the IC50 (pIC50) was 6.015.

In turn, `Cc1cc(F)c(-c2ccnn(C)c2=O)cc1NC(=O)C1=CN(C)C(=O)C[C@H]1c1ccc(F)cc1` [Compound 130, (S)-4-(4-Fluoro-phenyl)-1-methyl-6-oxo-1,4,5,6-tetrahydro-pyridine-3-carboxylic acid [4-fluoro-2-methyl-5-(2-methyl-3-oxo-2,3-dihydro-pyridazin-4-yl)-phenyl]-amide] yielded a pIC50 of 7.864.

For `Cc1ccc(-c2cc(C)n(CCO)n2)cc1NC(=O)C1=CN(C)C(=O)C[C@H]1c1cccc(F)c1` [Compound 70, (S)-4-(3-Fluoro-phenyl)-1-methyl-6-ox-1,4,5,6-tetrahydro-pyridine-3-carboxylic acid {5-[1-(2-hydroxy-ethyl)-5-methyl-1H-pyrazol-3-yl]-2-methyl-phenyl}-amide], the pIC50 is reported as 7.72.

As to `CN1C=C(C(=O)Nc2cc(-c3ccn[nH]c3=O)ccc2F)[C@H](c2ccc(F)cc2)CC1=O` [Compound 123, (S)-4-(4-Fluoro-phenyl)-1-methyl-6-oxo-1,4,5,6-tetrahydro-pyridine-3-carboxylic acid [2-fluoro-5-(3-oxo-2,3-dihydro-pyridazin-4-yl)-phenyl]-amide], the negative logarithm of the IC50 (pIC50) was found to be 7.58.

In turn, `Cc1ccc(-c2cc(C)n(C)n2)cc1NC(=O)C1=CNC(=O)C[C@H]1c1ccc(F)cc1` [Compound 4, (S)-4-(4-Fluoro-phenyl)-6-oxo-1,4,5,6-tetrahydro-pyridine-3-carboxylic acid [5-(1,5-dimethyl-1H-pyrazol-3-yl)-2-methyl-phenyl]-amide] yielded a negative logarithm of the IC50 (pIC50) of 7.715.

Consider `Cc1ccc(-c2c(Cl)cn[nH]c2=O)cc1NC(=O)C1=CNC(=O)C[C@H]1c1ccc(F)cc1` [Compound 55, (S)-4-(4-Fluoro-phenyl)-6-oxo-1,4,5,6-tetrahydro-pyridine-3-carboxylic acid [5-(5-chloro-3-oxo-2,3-dihydro-pyridazin-4-yl)-2-methyl-phenyl]-amide], for which the pIC50 is on record as 7.54.

With `Cc1ccc(-n2ncccc2=O)cc1NC(=O)C1=CN(C)C(=O)C[C@H]1c1ccc(F)cc1` [Compound 110, (S)-4-(4-Fluoro-phenyl)-1-methyl-6-oxo-1,4,5,6-tetrahydro-pyridine-3-carboxylic acid [2-methyl-5-(6-oxo-6H-pyridazin-1-yl)-phenyl]-amide], the pIC50 is on record as 7.17.

Consider `Cc1ccc(-n2ncc(=O)n(C)c2=O)cc1NC(=O)C1=CN(C)C(=O)C[C@H]1c1ccc(F)cc1` [Compound 68, (S)-4-(4-Fluoro-phenyl)-1-methyl-6-oxo-1,4,5,6-tetrahydro-pyridine-3-carboxylic acid [2-methyl-5-(4-methyl-3,5-dioxo-4,5-dihydro-3H-[1,2,4]triazin-2-yl)-phenyl]-amide], for which the negative logarithm of the IC50 (pIC50) came to 7.01.

On to `Cc1cc(-c2ccc(C)c(NC(=O)C3=CNC(=O)C[C@H]3c3ccc(F)cc3)c2)no1` [Compound 40, (S)-4-(4-Fluoro-phenyl)-6-oxo-1,4,5,6-tetrahydro-pyridine-3-carboxylic acid [2-methyl-5-(5-methyl-isoxazol-3-yl)-phenyl]-amide], for which the negative logarithm of the IC50 (pIC50) is 7.183.

`Cc1ccc(-c2[nH]nc(C)c2C)cc1NC(=O)C1=CNC(=O)C[C@H]1c1ccc(F)cc1` [Compound 15, (S)-4-(4-Fluoro-phenyl)-6-oxo-1,4,5,6-tetrahydro-pyridine-3-carboxylic acid [5-(4,5-dimethyl-2H-pyrazol-3-yl)-2-methyl-phenyl]-amide] displayed a negative-log IC50 (pIC50) of 7.79.
